Test results reported in US6670485B2, “Prostanoic acid derivatives as agents for lowering intraocular pressure” (Allergan, Inc., priority 2001, dated 2003).

Key:
intraocular pressure = test: Intraocular pressure in glaucomatous cynomolgus monkeys; assay type: in vivo; details: glaucomatous cynomonlgus monkeys
Dog intraocular pressure = test: Intraocular pressure in dogs by applanation pneumatonometry; assay type: in vivo; details: 25 μl to the ocular surface, contralateral eye vehicle, IOP before drug administration and at 6 hours thereafter
Experimental: The effects of the compounds of this invention on intraocular pressure are also measured. The compounds are prepared at the said concentrations in a vehicle comprising 0.1% polysorbate 80 and 10 mM TRIS base. Dogs are treated by administering 25 μl to the ocular surface, the contralateral eye received vehicle as a control. Intraocular pressure is measured by applanation pneumatonometry. Dog intraocular pressure is measured immediately before drug administration and at 6 hours thereafter.

Compound | ocular hypotensive effect (intraocular pressure) | ocular hypotensive effect (Dog intraocular pressure)
O=C(O)CCC/C=C\C[C@H]1C(=O)C[C@@H](O)[C@@H]1/C=C/[C@@H](O)CCc1sc2ccccc2c1Cl [7(a), (Z)-7-{(1R,2R,3R,5S)-2-[(E)-(S)-5-(3-Chlorobenzo[b]thiophen-2-yl)-3-hydroxypent-1-enyl]-3-hydroxy-5-oxocyclopentyl}hept-5-enoic acid] | pronounced ocular hypotensive effect | 
C=CCOC(=O)CCC/C=C\C[C@H]1C(=O)C[C@@H](O)[C@@H]1/C=C/[C@@H](O)CCc1sc2ccccc2c1Cl [6(a), (Z)-7-{(1R,2R,3R,5S)-2-[(E)-(S)-5-(3-Chlorobenzo[b]thiophen-2-yl)-3-hydroxypent-1-enyl]-3-hydroxy-5-oxocyclopentyl}hept-5-enoic acid allyl ester] |  | pronounced ocular hypotensive effect
